Results: ChEMBL document CHEMBL1201862, “PubChem BioAssay data set” (2004)
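Briefly, cells in 96-well plates were exposed to five compound concentrations for 48 h, and endpoints were estimated by linear interpolation. Here, GI50 denotes the concentration required for 50% inhibition of growth.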 Activity calls are given as the source filed them. Cut-off read from the data, not from the text of the source: active = GI50 up to about 1.1 µM and inactive = higher.

How the values were obtained:
Test in all cases: inhibition of tumour cell growth, NCI panel, 48 h
PC-3 = test system: PC-3
T47D = test system: T47D
MDA-N = test system: MDA-N
RXF 631 = test system: RXF 631
LXFL 529 = test system: LXFL 529
DLD-1 = test system: DLD-1
SNB-78 = test system: SNB-78
XF498 = test system: XF498
HOP-18 = test system: HOP-18

Measured: GI50

CCOC(=O)c1c(N=C(S)Nc2ccccc2)sc2c1CCN(C)C2
inactive: PC-3 > 100 µM | T47D > 100 µM | MDA-N > 100 µM

CC(C)=CC1(C)/C(=N\O)C(C)(CC(C)C)C(=O)N1O (stereo not drawn)
inactive: RXF 631 > 100 µM | LXFL 529 > 100 µM | DLD-1 > 100 µM | SNB-78 > 100 µM | XF498 11.3 µM

N#C/C(=C1/Sc2c(nc[nH]c2=O)N1c1ccccc1)c1nc2ccccc2[nH]1
inactive: LXFL 529 > 100 µM | DLD-1 > 100 µM | SNB-78 > 100 µM | XF498 > 100 µM

C/C=C/C1=CC(=O)C(O)C1O (stereo not drawn)
inactive: HOP-18 12.4 µM | DLD-1 30.4 µM | SNB-78 57.8 µM | XF498 18.5 µM

O=C(c1nc2ccc(Cl)cc2nc1O)C(O)c1ccccc1 (stereo not drawn)
inactive: LXFL 529 32.7 µM | DLD-1 > 100 µM | SNB-78 > 100 µM

CCOC(=O)NC(OCc1ccccc1)(C(=O)OC)C(F)(F)F (stereo not drawn)
inactive: PC-3 > 100 µM | T47D > 100 µM | MDA-N > 100 µM

c1ccc2c(c1)CCCC/C2=N/OCC1CO1 (stereo not drawn)
inactive: HOP-18 34.7 µM | LXFL 529 36.3 µM | DLD-1 > 100 µM | SNB-78 57.4 µM | XF498 29.4 µM

OCCCC(O)(c1ccccc1)c1ccccc1
inactive: PC-3 > 100 µM

CCCCCCCSc1nc2c(C(=O)OCC)ncn2c2ccccc12
inactive: LXFL 529 > 100 µM | XF498 > 100 µM

O=C(N/N=C/c1ccccc1)c1c(F)c(F)c(F)c(F)c1F
inactive: PC-3 > 100 µM | T47D > 100 µM | MDA-N 28.8 µM

Fc1ccc2c(c1)SC1=Nc3sc4cc(F)ccc4[n+]3CN12
inactive: PC-3 21.4 µM | T47D 13.7 µM

Cc1csc(/N=C(/NCCN2CCOCC2)Nc2nc(C)cs2)n1
inactive: HOP-18 > 100 µM | DLD-1 > 100 µM | SNB-78 > 100 µM | XF498 > 100 µM

C=C1[C@@H]2CCC(C)(C)[C@H]1CCC(=O)[C@@H]2C(=O)OC
inactive: RXF 631 > 100 µM | LXFL 529 > 100 µM | XF498 > 100 µM

C[C@H](O)C(=O)SC[C@H](NC(=O)CC[C@@H](N)C(=O)O)C(=O)NCC(=O)O
inactive: LXFL 529 > 100 µM | DLD-1 > 100 µM

COC(=O)C(=O)Cc1nc2ccccc2o1
inactive: RXF 631 > 100 µM | LXFL 529 > 100 µM | DLD-1 > 100 µM | SNB-78 > 100 µM | XF498 > 100 µM

O=C1c2ccccc2C(=O)N1/N=C1/SC(=N\c2ccccc2)/C(=N/c2ccccc2)N1c1ccccc1
inactive: PC-3 > 52.6 µM | T47D > 100 µM

O=C(O)CN(CC(=O)O)C(C(=O)O)c1ccccc1 (stereo not drawn)
inactive: PC-3 > 100 µM | T47D > 100 µM | MDA-N > 100 µM

CC1CC/C(=C\c2ccc(Cl)cc2)C(=O)/C1=C\c1ccc(Cl)cc1 (stereo not drawn)
inactive: PC-3 34.4 µM | T47D 58.9 µM | MDA-N 51.2 µM

COC(=O)C(C/C=C(\C)c1ccc(Cl)cc1)C(C)=O (stereo not drawn)
inactive: HOP-18 40.3 µM | DLD-1 57.1 µM | SNB-78 > 56.8 µM | XF498 > 65.8 µM

Cc1cc2cc3c(C)cc(=O)oc3c(C)c2o1 [TRIOXSALEN]
inactive: PC-3 > 100 µM | T47D > 100 µM | MDA-N > 100 µM

N#CCc1c(F)c(F)c(F)c(F)c1F
inactive: PC-3 > 100 µM | T47D > 100 µM | MDA-N > 100 µM

CC[C@]12C=CCN3CC[C@@]4(c5cc(Br)c(OC)c([N+](=O)[O-])c5N(C)[C@H]4[C@@](O)(C(=O)OC)[C@@H]1OC(C)=O)[C@@H]32
inactive: PC-3 40.4 µM | T47D 50.4 µM | MDA-N 37.2 µM

C=CC(C)C1(CCCOCc2ccccc2)C(=S)N2CCC3(CC24CCCC14)OCCO3 (stereo not drawn)
inactive: HOP-18 > 100 µM | LXFL 529 6.1 µM | DLD-1 54.6 µM | SNB-78 9.48 µM | XF498 3.06 µM

COc1ccc(-c2c3c(nc4nc(SCCc5ccccc5)nc(N)c24)CCCC3)cc1OC
inactive: PC-3 > 100 µM | T47D > 100 µM | MDA-N > 100 µM

CCOC(=O)c1cc(C2CCN(Cc3ccccc3)C2=S)c(C(=O)C=[N+]=[N-])[nH]1 (stereo not drawn)
inactive: PC-3 27.4 µM | MDA-N 21.1 µM

CCO[C@]12C[C@H](OC)[C@@]3(O)CC(C1[C@H]3O)C13C4C2[C@H](OC)C1[C@](COC)(CN4CC)[C@H](O)C[C@@H]3OC (stereo partly drawn)
inactive: LXFL 529 > 100 µM | DLD-1 > 100 µM | SNB-78 > 100 µM
